Experimental data: US11104671B2, “Insecticidal compounds” (SYNGENTA PARTICIPATIONS AG, priority 2017, dated 2021)
Read-outs that look alike come from different tables or passages of the source.

Experiments:
Assay type in all cases: in vivo
[1] = tested on: Myzus persicae; test: Myzus persicae (green peach aphid), intrinsic activity; details: 120 h
Text: Myzus persicae (Green Peach Aphid). Intrinsic Activity
Test compounds prepared from 10,000 ppm DMSO stock solutions were applied by pipette into 24-well microtiter plates and mixed with sucrose solution. The plates were closed with a stretched Parafilm. A plastic stencil with 24 holes was placed onto the plate and infested pea seedlings were placed directly on the Parafilm. The infested plate was closed with a gel blotting paper and another plastic stencil and then turned upside down. The samples were assessed for mortality 5 days after infestation.

[2] = tested on: Diabrotica balteata; test: Diabrotica balteata (corn root worm), maize sprouts sprayed, L2 larvae; details: 96 h, read-out: effect in at least one of the two categories (mortality or growth inhibition); for percent effect (mortality or growth inhibition) at 200 ppm: application rate 200 ppm, 4 days after infestation, L2 larvae
Method: Diabrotica Balteata (Corn Root Worm)
Maize sprouts placed onto an agar layer in 24-well microtiter plates were treated with aqueous test solutions prepared from 10,000 ppm DMSO stock solutions by spraying. After drying, the plates were infested with L2 larvae (6 to 10 per well). The samples were assessed for mortality and growth inhibition in comparison to untreated samples 4 days after infestation.

[3] = tested on: Thrips tabaci; test: Thrips tabaci (onion thrips), feeding/contact activity; details: foliar, 144 h
Method: Thrips tabaci (Onion thrips) Feeding/Contact Activity
Sunflower leaf discs were placed on agar in 24-well microtiter plates and sprayed with aqueous test solutions prepared from 10,000 ppm DMSO stock solutions. After drying the leaf discs were infested with a thrips population of mixed ages. The samples were assessed for mortality 6 days after infestation.

[4] = tested on: Plutella xylostella; test: Plutella xylostella (diamond back moth), artificial diet, L2 larvae; details: 120 h, read-out: effect in at least one of the two categories (mortality or growth inhibition); for percent effect (mortality or growth inhibition) at 200 ppm: application rate 200 ppm, 5 days after infestation, L2 larvae
Method: Plutella xylostella (Diamond Back Moth)
24-well microtiter plates with artificial diet were treated with aqueous test solutions prepared from 10,000 ppm DMSO stock solutions by pipetting. After drying, the plates were infested with L2 larvae (10 to 15 per well). The samples were assessed for mortality and growth inhibition in comparison to untreated samples 5 days after infestation.

[5] = tested on: Spodoptera littoralis; test: Spodoptera littoralis (Egyptian cotton leaf worm), cotton leaf discs, L1 larvae; details: foliar, 72 h, read-out: control (mortality, anti-feedant effect or growth inhibition)
Method: Spodoptera littoralis (Egyptian Cotton Leaf Worm)
Cotton leaf discs were placed onto agar in 24-well microtiter plates and sprayed with aqueous test solutions prepared from 10,000 ppm DMSO stock solutions. After drying the leaf discs were infested with five L1 larvae. The samples were assessed for mortality, anti-feeding effect, and growth inhibition in comparison to untreated samples 3 days after infestation. Control of Spodoptera littoralis by a test sample is given when at least one of the categories mortality, anti-feedant effect, and growth inhibition is higher than the untreated sample.

[6] = tested on: Euschistus heros; test: Euschistus heros (neotropical brown stink bug), soybean leaves sprayed, N2 nymphs; details: 120 h, read-out: effect in at least one of the two categories (mortality or growth inhibition); for percent effect (mortality or growth inhibition) at 200 ppm: application rate 200 ppm, 5 days after infestation, N2 nymphs
Method: Euschistus heros (Neotropical Brown Stink Bug)
Soybean leaves on agar in 24-well microtiter plates were sprayed with aqueous test solutions prepared from 10,000 ppm DMSO stock solutions. After drying the leaves were infested with N2 nymphs. The samples were assessed for mortality and growth inhibition in comparison to untreated samples 5 days after infestation.

[7] = tested on: Tetranychus urticae; test: Tetranychus urticae (two-spotted spider mite), feeding/contact activity; details: foliar, 192 h, read-out: mortality on mixed population (mobile stages)
Method: Tetranychus urticae (Two-Spotted Spider Mite): Feeding/Contact Activity
Bean leaf discs on agar in 24-well microtiter plates were sprayed with aqueous test solutions prepared from 10,000 ppm DMSO stock solutions. After drying the leaf discs were infested with a mite population of mixed ages. The samples were assessed for mortality on mixed population (mobile stages) 8 days after infestation.

[8] = tested on: Myzus persicae; test: Myzus persicae (green peach aphid), feeding/contact activity; details: foliar, 144 h
Method: Myzus persicae (Green Peach Aphid): Feeding/Contact Activity
Sunflower leaf discs were placed onto agar in a 24-well microtiter plate and sprayed with aqueous test solutions prepared from 10,000 ppm DMSO stock solutions. After drying, the leaf discs were infested with an aphid population of mixed ages. The samples were assessed for mortality 6 days after infestation.

[9] = test rate 12 ppm, 5 days after infestation, sucrose solution, infested pea seedlings, read-out: mortality
[10] = application rate 200 ppm, 6 days after infestation, sunflower leaf discs, mixed ages, read-out: mortality
[11] = application rate 200 ppm, 3 days after infestation, L1 larvae
[12] = application rate 200 ppm, 8 days after infestation, bean leaf discs

Cc1cc(C2=NO[C@](c3cc(Cl)cc(Cl)c3)(C(F)(F)F)[C@H]2Cl)ccc1C(=O)NC1CON(S(C)(=O)=O)C1 (stereo partly drawn) [Compound A4, 4-[(4S,5R)-4-chloro-5-(3,5-dichlorophenyl)-5-(trifluoromethyl)-4H-isoxazol-3-yl]-2-methyl-N-(2-methylsulfonylisoxazolidin-4-yl)benzamide]
≥ 80%: mortality at 12 ppm [1] | percent control (mortality or growth inhibition) at 200 ppm [2] | mortality at 200 ppm [3] | percent control (mortality or growth inhibition) at 200 ppm [4] | percent control (mortality, anti-feedant effect or growth inhibition) at 200 ppm [5] | percent control (mortality or growth inhibition) at 200 ppm [6] | mortality at 200 ppm [7] | mortality at 200 ppm [8]

Cc1cc(C2=NCC(c3cc(Cl)cc(Cl)c3)(C(F)(F)F)C2)ccc1C(=O)NC1CON(S(C)(=O)=O)C1 (centres unmarked) [Compound A5, 4-[3-(3,5-dichlorophenyl)-3-(trifluoromethyl)-2,4-dihydropyrrol-5-yl]-2-methyl-N-(2-methylsulfonylisoxazolidin-4-yl)benzamide]
≥ 80%: mortality at 12 ppm [1, 9] | percent effect (mortality or growth inhibition) at 200 ppm [2] | mortality at 200 ppm [3, 10] | percent effect (mortality or growth inhibition) at 200 ppm [4] | percent control (mortality, anti-feedant effect or growth inhibition) at 200 ppm [5, 11] | percent effect (mortality or growth inhibition) at 200 ppm [6] | mortality at 200 ppm [7, 12] | mortality at 200 ppm [8, 10]

Cc1cc(C2=NCC(c3cc(Cl)c(F)c(Cl)c3)(C(F)(F)F)C2)ccc1C(=O)NC1CON(S(C)(=O)=O)C1 (centres unmarked) [Compound A7, 4-[3-(3,5-dichloro-4-fluoro-phenyl)-3-(trifluoromethyl)-2,4-dihydropyrrol-5-yl]-2-methyl-N-(2-methylsulfonylisoxazolidin-4-yl)benzamide]
≥ 80%: mortality at 12 ppm [1, 9] | percent effect (mortality or growth inhibition) at 200 ppm [2] | mortality at 200 ppm [3, 10] | percent effect (mortality or growth inhibition) at 200 ppm [4] | percent control (mortality, anti-feedant effect or growth inhibition) at 200 ppm [5, 11] | percent effect (mortality or growth inhibition) at 200 ppm [6] | mortality at 200 ppm [7, 12] | mortality at 200 ppm [8, 10]

Cc1cc(C2=NCC(c3cc(Cl)c(Cl)c(Cl)c3)(C(F)(F)F)C2)ccc1C(=O)NC1CON(S(C)(=O)=O)C1 (centres unmarked) [Compound A8, 2-methyl-N-(2-methylsulfonylisoxazolidin-4-yl)-4-[3-(3,4,5-trichlorophenyl)-3-(trifluoromethyl)-2,4-dihydropyrrol-5-yl]benzamide]
≥ 80%: mortality at 12 ppm [1, 9] | percent effect (mortality or growth inhibition) at 200 ppm [2] | mortality at 200 ppm [3, 10] | percent effect (mortality or growth inhibition) at 200 ppm [4] | percent control (mortality, anti-feedant effect or growth inhibition) at 200 ppm [5, 11] | percent effect (mortality or growth inhibition) at 200 ppm [6] | mortality at 200 ppm [7, 12] | mortality at 200 ppm [8, 10]
